We go through 17 molecules from patent US9663457B2, “Carbamoyl hydrazine derivatives as formyl peptide modulators” (Allergan, Inc., priority 2014, dated 2017).

This assay concerns the target T1, FPR2 (Homo sapiens, UniProt P25090).
T1 construct: expressed in transfected cells; host or cells: HEK-Gα16, CHO-Gα16 and HEK-Gqi5 cells stably expressing FPR2
T1 sequence (P25090 1-351): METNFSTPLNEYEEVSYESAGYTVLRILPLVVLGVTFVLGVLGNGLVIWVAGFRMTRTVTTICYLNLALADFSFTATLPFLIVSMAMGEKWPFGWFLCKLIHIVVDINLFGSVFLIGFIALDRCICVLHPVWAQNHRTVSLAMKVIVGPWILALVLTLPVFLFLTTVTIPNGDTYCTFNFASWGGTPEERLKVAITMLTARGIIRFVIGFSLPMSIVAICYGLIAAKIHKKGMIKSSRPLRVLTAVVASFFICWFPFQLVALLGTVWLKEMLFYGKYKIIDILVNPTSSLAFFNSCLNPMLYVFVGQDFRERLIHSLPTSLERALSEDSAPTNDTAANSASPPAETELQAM
In words: FPR2 compound-induced calcium activity assay on FLIPR Tetra. It is filed as cell-based. The following applies: HEK-Gα16, CHO-Gα16 or HEK-Gqi5 cells stably expressing FPR2, tested at 0.61 to 10,000 nM; for Emax: read-out: % Efficacy. As for the experimental part:
Compounds of Formula I modulate FPR activity. […] HEK-Gα16 and CHO-Gα16 cells stably expressing FPR2 were cultured in (F12, 10% FBS, 1% PSA, 400 μg/ml geneticin and 50 μg/ml hygromycin) and HEK-Gqi5 cells stable expressing FPR2 were cultured in (DMEM high glucose, 10% FBS, 1% PSA, 400 μg/ml geneticin and 50 μg/ml hygromycin). In general, the day before the experiment, 18,000 cells/well were plated in a 384-well clear bottom poly-D-lysine coated plate. The following day, the screening compound-induced calcium activity was assayed on the FLIPR^Tetra. The drug plates were prepared in 384-well microplates using the EP3 and the MuItiPROBE robotic liquid handling systems. Compounds were tested at concentrations ranging from 0.61 to 10,000 nM. Results are expressed as EC50 (nM) and efficacy values.

In general, EC50 refers to the concentration that produces a half-maximal response. Turning to `CCOC(=O)CCC(=O)N(CC(C)C)NC(=O)Nc1ccc(Br)cc1F` [Compound 9, ethyl 4-{2-[(4-bromo-2-fluorophenyl)carbamoyl]-1-(2-methylpropyl)hydrazinyl}-4-oxobutanoate], the EC50 was 3660 nM and the Emax came to 76%.
The matching figures for `CCOC(=O)CCC(=O)N(CC(C)C)NC(=O)Nc1ccc(Br)cc1` [Compound 7, Ethyl 4-{2-[(4-Bromophenyl)carbamoyl]-1-(2-methylpropyl)hydrazinyl}-4-oxobutanoate]: 31 nM and 100%.
On to `CCOC(=O)CCC(=O)N(CC(C)C)NC(=O)Nc1ccc(C(F)(F)F)cc1` [Compound 11, ethyl 4-[1-(2-methylpropyl) 2{[4-(trifluoromethyl)phenyl]carbamoyl}hydrazinyl]-4-oxobutanoate], for which the EC50 is 57 nM and the Emax came to 94%.
Turning to `CCCN(NC(=O)Nc1ccc(Br)cc1F)C(=O)CCC(=O)O` [Compound 17, 4-{2-[(4-bromo-2-fluorophenyl)carbamoyl]-1-propylhydrazinyl}-4-oxobutanoic acid], the half-maximal effective concentration (EC50) amounted to 29 nM and the Emax came to 100%.
Regarding `CCCN(NC(=O)Nc1ccc(C(F)(F)F)cc1)C(=O)CCC(=O)OCC` [Compound 13, ethyl 4-oxo-4-(1-propyl-2-{[4-(trifluoromethyl)phenyl]carbamoyl}hydrazinyl)butanoate], the half-maximal effective concentration (EC50) came to 35 nM and the Emax was 98%.
`CCC(CC)(CC(=O)NNC(=O)Nc1ccc(Br)cc1)C(=O)O` [Compound 6, 4-{2-[(4-bromophenyl)carbamoyl]hydrazinyl}-2,2-diethyl-4-oxobutanoic acid]: the EC50 was 421 nM and the Emax was determined as 73%.
Turning to `CC(C)(C(=O)O)C(=O)NNC(=O)Nc1ccc(Br)cc1` [Compound 2, 3-{2-[(4-Bromophenyl)carbamoyl]hydrazinyl}-2,2-dimethyl-3-oxopropanoic Acid], the EC50 was 5210 nM and the Emax amounted to 73%.
Consider `CCCCN(NC(=O)Nc1ccc(Br)cc1)C(=O)CCC(=O)OCC` [Compound 15, ethyl 4-{2-[(4-bromophenyl)carbamoyl]-1-butylhydrazinyl}-4-oxobutanoate], for which the EC50 came to 34 nM and the Emax was 100%.
As to `CC(C)CN(NC(=O)Nc1ccc(C(F)(F)F)cc1)C(=O)CCC(=O)O` [Compound 12, 4-[1-(2-methylpropyl)-2-{[4-(trifluoromethyl)phenyl]carbamoyl}hydrazinyl]-4-oxobutanoic acid], the half-maximal effective concentration (EC50) was determined as 21 nM and the Emax is 98%.
As to `CCOC(=O)CC(=O)NNC(=O)Nc1ccc(Br)cc1` [Compound 1, Ethyl 3-{2[(4-bromophenyl)carbamoyl]hydrazinyl}-3-oxopropanoate], the EC50 turned out to be 750 nM and the Emax amounted to 100%.
`CCCC(CCC)(CC(=O)NNC(=O)Nc1ccc(Br)cc1)C(=O)OC` [Compound 4, methyl 2-(2-{2-[(4-bromophenyl)carbamoyl]hydrazinyl}-2-oxoethyl)-2-propylpentanoate]: the EC50 was found to be 46 nM and the Emax was determined as 89%.
As to `CCCN(NC(=O)Nc1ccc(C(F)(F)F)cc1)C(=O)CCC(=O)O` [Compound 14, 4-oxo-4-(1-propyl-2-{[4-(trifluoromethyl)phenyl]carbamoyl}hydrazinyl)butanoic acid], the EC50 amounted to 28 nM and the Emax was determined as 97%.
Take `CC(C)CN(NC(=O)Nc1ccc(Br)cc1F)C(=O)CCC(=O)O` [Compound 10, 4-{2-[(4-bromo-2-fluorophenyl)carbamoyl]-1-(2-methylpropyl)hydrazinyl}-4-oxobutanoic acid]: the EC50 came to 339 nM and the Emax worked out at 99%.
As for `CCCC(CCC)(CC(=O)NNC(=O)Nc1ccc(Br)cc1)C(=O)O` [Compound 5, 2-[2-(2-{[(4-Bromophenyl)amino]carbonyl}hydrazino)-2-oxoethyl]-2-propylpentanoic Acid], the EC50 is 215 nM and the Emax came to 87%.
`CC(C)(CC(=O)NNC(=O)Nc1ccc(Br)cc1)C(=O)O` [Compound 3, 4-{2-[(4-bromophenyl)carbamoyl]hydrazinyl}-2,2-dimethyl-4-oxobutanoic acid]: the EC50 came out at 602 nM and the Emax came out at 86%.
With `CC(C)CN(NC(=O)Nc1ccc(Br)cc1)C(=O)CCC(=O)O` [Compound 8, 4-{2-[(4-Bromophenyl)carbamoyl]-1-(2-methylpropyl)hydrazinyl}-4-oxobutanoic Acid], the EC50 came to 12 nM and the Emax was 100%.
Take `CCCN(NC(=O)Nc1ccc(Br)cc1F)C(=O)CCC(=O)OCC` [Compound 16, ethyl 4-{2-[(4-bromo-2-fluorophenyl)carbamoyl]-1-propylhydrazinyl}-4-oxobutanoate]: the EC50 stood at 34 nM and the Emax amounted to 100%.
